Reference: patent US10611740B2, “Aryl dihydro-2H-benzo[b][1,4]oxazine sulfonamide and related compounds for use as agonists of RORγ and the treatment of disease” (Lycera Corporation, priority 2015, dated 2020)

Key:
Gal4-RORγ-LBD = target: T1, Gal4-RORγ-LBD (Homo sapiens, UniProt P51449); assay: Gal4-RORγ Luciferase Reporter Assay in HEK-293T Cells; assay type: cell-based; conditions: HEK-293 cells, luciferase reporter, with 2 μM ursolic acid
T1 construct: expressed in transfected cells; host or cells: HEK-293 cells (pcDNA3.1neo plasmid)
T1 sequence (P51449 269-508 limits assumed): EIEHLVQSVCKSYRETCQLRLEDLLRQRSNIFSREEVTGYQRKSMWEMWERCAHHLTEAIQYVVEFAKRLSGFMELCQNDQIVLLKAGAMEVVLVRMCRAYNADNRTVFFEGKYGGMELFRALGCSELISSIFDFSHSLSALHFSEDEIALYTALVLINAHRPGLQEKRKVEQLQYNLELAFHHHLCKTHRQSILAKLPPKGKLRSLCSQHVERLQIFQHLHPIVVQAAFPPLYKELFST
How it was run: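 HEK-293 cells were transiently co-transfected with Gal4-RORγ-LBD and pGL4.31 Gal4-luciferase, with ursolic acid added at 2 μM final. Compounds were incubated overnight at 37° C. in 0.2% DMSO and luminescence read with One-Glo. Max Response is the upper plateau of a 4-parameter logistic fit, with signal lacking ursolic acid or compound set to 100.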

RORγ-LBD = target: T2, RORγ-LBD (Homo sapiens, UniProt P51449); assay: RORγ-Ligand Binding Domain (LBD) TR-FRET Assay; assay type: biochemical;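 for TR-FRET Assay Max Response: 665/615 nm ratio relative to signal without ursolic acid or compound set at 100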
T2 construct: made in house; host or cells: SF9 cells (baculovirus)
T2 sequence (P51449 269-508 limits assumed): T1 sequence (P51449 269-508 limits assumed)
How it was run: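 Compounds, diluted in DMSO and then in assay buffer (1% DMSO final), were combined with His-tagged RORγ-LBD lysate at roughly 3 nM final and a 200 nM biotinylated SRC1 LXXLL peptide. Ursolic acid was included at 2 μM final. Coactivator recruitment was detected by TR-FRET.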

SMILES | EC50 (Gal4-RORγ-LBD) [µM] | Gal4-RORγ Assay Max Response (Gal4-RORγ-LBD) | EC50 (RORγ-LBD) [µM] | TR-FRET Assay Max Response (RORγ-LBD)
Cc1cccc(-c2ccc3c(c2)N(S(=O)(=O)c2cccc(C(F)(F)F)c2)C[C@H](CCC(=O)O)O3)c1F [Compound 2AY, (S)-3-(6-(2-fluoro-3-methyl-phenyl)-4-((3-(trifluoro-methyl)phenyl)sulfonyl)-3,4-dihydro-2H-benzo[b][1,4]-oxazin-2-yl)propanoic acid] | 0.5 to 5 | **** (The symbol “****” indicates a value greater than 200) | < 0.5 | **** (The symbol “****” indicates a value greater than 200)
Cc1nnc(-c2ccc3c(c2)N(S(=O)(=O)c2cccc(C(F)(F)F)c2)C[C@H](CCC(=O)O)O3)s1 [Compound 2AZ, (S)-3-(6-(5-methyl-1,3,4-thiadiazol-2-yl)-4-((3-(trifluoromethyl)phenyl)-sulfonyl)-3,4-dihydro-2H-benzo[b][1,4]oxazin-2-yl)propanoic acid] | > 10 | ** (The symbol “**” indicates a value in the range of greater than 90 to 150) | > 10 | 
Cc1ccc(F)cc1-c1ccc2c(c1)N(S(=O)(=O)c1cccc(C(F)(F)F)c1)C[C@H](CCC(=O)O)O2 [Compound 2BA, (S)-3-(6-(5-fluoro-2-methylphenyl)-4-((3-(trifluoromethyl)phenyl)sulfonyl)-3,4-dihydro-2H-benzo[b][1,4]oxazin-2-yl)propanoic acid] | < 0.5 | ** (The symbol “**” indicates a value in the range of greater than 90 to 150) | < 0.5 | **** (The symbol “****” indicates a value greater than 200)
COc1c(F)cc(F)cc1-c1ccc2c(c1)N(S(=O)(=O)c1cccc(C(F)(F)F)c1)C[C@H](CCC(=O)O)O2 [Compound 2BC, (S)-3-(6-(3,5-difluoro-2-methoxyphenyl)-4-((3-(trifluoromethyl)phenyl)-sulfonyl)-3,4-dihydro-2H-benzo[b][1,4]oxazin-2-yl)propanoic acid] | < 0.5 | *** (The symbol “***” indicates a value in the range of greater than 150 to 200) | < 0.5 | **** (The symbol “****” indicates a value greater than 200)
CCc1ccccc1-c1ccc2c(c1)N(S(=O)(=O)c1cccc(C(F)(F)F)c1)C[C@H](CCC(=O)O)O2 [Compound 2BD, (S)-3-(6-(2-ethylphenyl)-4-((3-(trifluoromethyl)phenyl)sulfonyl)-3,4-dihydro-2H-benzo[b][1,4]oxazin-2-yl)propanoic acid] | < 0.5 | ** (The symbol “**” indicates a value in the range of greater than 90 to 150) | < 0.5 | **** (The symbol “****” indicates a value greater than 200)
O=C(O)CC[C@H]1CN(S(=O)(=O)c2cccc(C(F)(F)F)c2)c2cc(-c3cccnc3Cl)ccc2O1 [Compound 2BE, (S)-3-(6-(2-chloropyridin-3-yl)-4-((3-(trifluoromethyl)phenyl)-sulfonyl)-3,4-dihydro-2H-benzo[b][1,4]oxazin-2-yl)propanoic acid] | 0.5 to 5 | ** (The symbol “**” indicates a value in the range of greater than 90 to 150) | < 0.5 | **** (The symbol “****” indicates a value greater than 200)
COc1ncccc1-c1ccc2c(c1)N(S(=O)(=O)c1cccc(C(F)(F)F)c1)C[C@H](CCC(=O)O)O2 [Compound 2BG, (S)-3-(6-(2-methoxypyridin-3-yl)-4-((3-(trifluoromethyl)-phenyl)sulfonyl)-3,4-dihydro-2H-benzo[b][1,4]oxazin-2-yl)propanoic acid] | 0.5 to 5 | ** (The symbol “**” indicates a value in the range of greater than 90 to 150) | < 0.5 | *** (The symbol “***” indicates a value in the range of greater than 150 to 200)
CC(C)Cn1cc(-c2ccc3c(c2)N(S(=O)(=O)c2cccc(C(F)(F)F)c2)C[C@H](CCC(=O)O)O3)cn1 [Compound 2BH, (S)-3-(6-(1-isobutyl-1H-pyrazol-4-yl)-4-((3-(trifluoromethyl)-phenyl)sulfonyl)-3,4-dihydro-2H-benzo[b][1,4]oxazin-2-yl)propanoic acid] | > 10 |  | 0.5 to 5 | ** (The symbol “**” indicates a value in the range of greater than 90 to 150)
CS(=O)(=O)c1ccccc1-c1ccc2c(c1)N(S(=O)(=O)c1cccc(C(F)(F)F)c1)C[C@H](CCC(=O)O)O2 [Compound 2BI, (S)-3-(6-(2-(methylsulfonyl)-phenyl)-4-((3-(trifluoromethyl)-phenyl)sulfonyl)-3,4-dihydro-2H-benzo[b][1,4]oxazin-2-yl)propanoic acid] | 0.5 to 5 | ** (The symbol “**” indicates a value in the range of greater than 90 to 150) | 0.5 to 5 | *** (The symbol “***” indicates a value in the range of greater than 150 to 200)
COc1cccc(C#N)c1-c1ccc2c(c1)N(S(=O)(=O)c1cccc(C(F)(F)F)c1)C[C@H](CCC(=O)O)O2 [Compound 2BJ, (S)-3-(6-(2-cyano-6-methoxy-phenyl)-4-((3-(trifluoromethyl)-phenyl)sulfonyl)-3,4-dihydro-2H-benzo[b][1,4]oxazin-2-yl)propanoic acid] | > 10 | ** (The symbol “**” indicates a value in the range of greater than 90 to 150) | > 10 | 
Cc1ccc(Cl)c(-c2ccc3c(c2)N(S(=O)(=O)c2cccc(C(F)(F)F)c2)C[C@H](CCC(=O)O)O3)c1 [Compound 2BK, (S)-3-(6-(2-chloro-5-methyl-phenyl)-4-((3-(trifluoromethyl)-phenyl)sulfonyl)-3,4-dihydro-2H-benzo[b][1,4]oxazin-2-yl)propanoic acid] | < 0.5 | ** (The symbol “**” indicates a value in the range of greater than 90 to 150) | < 0.5 | *** (The symbol “***” indicates a value in the range of greater than 150 to 200)
Cc1ccc(F)c(-c2ccc3c(c2)N(S(=O)(=O)c2cccc(C(F)(F)F)c2)C[C@H](CCC(=O)O)O3)c1 [Compound 2BL, (S)-3-(6-(2-fluoro-5-methyl-phenyl)-4-((3-(trifluoromethyl)-phenyl)sulfonyl)-3,4-dihydro-2H-benzo[b][1,4]oxazin-2-yl)propanoic acid] | < 0.5 | ** (The symbol “**” indicates a value in the range of greater than 90 to 150) | < 0.5 | *** (The symbol “***” indicates a value in the range of greater than 150 to 200)
O=C(O)CC[C@H]1CN(S(=O)(=O)c2cccc(C(F)(F)F)c2)c2cc(-c3ccccc3C(F)(F)F)ccc2O1 [Compound 2BM, (S)-3-(6-(2-(trifluoromethyl)-phenyl)-4-((3-(trifluoromethyl)-phenyl)sulfonyl)-3,4-dihydro-2H-benzo[b][1,4]oxazin-2-yl)propanoic acid] | 0.5 to 5 | ** (The symbol “**” indicates a value in the range of greater than 90 to 150) | < 0.5 | *** (The symbol “***” indicates a value in the range of greater than 150 to 200)
